# How the values were obtained:
# diabetic rats = conditions: Golub et al. 1990; cited from earlier work
# skin collagen [1] = experiment: Glycosylation of diabetic rat skin collagen (Example V, Table IV); type: in vivo, Sprague-Dawley rat; conditions: 5 mg daily oral gavage, 21 days; for mM Fructosamine/mg protein (Mean ± SE): NDC 0.027, untreated diabetic 0.377; for Reduction of glycosylation in treated diabetics (%): vs untreated diabetic control
# Procedure: (§1) All animals were weighed weekly.
# The subcutaneous muscle layer was removed leaving essentially the dermis. The dermis (skin connective tissue) samples were minced, then homogenized in phosphate buffered saline (4° C.). Following centrifugation (at 9000 rpm, 4° C., 30 min.) of the homogenates, the supernatants were discarded. The pellets were repeatedly washed, then resuspended and extracted at 4° C. overnight in chloroform/methanol to remove lipids. The de-lipidized tissue samples were then washed in 100% methanol, then in 50% methanol. Following the methanol washes, the samples were washed with HEPES buffer (pH 7.4). The skin connective tissue samples (100 mg of each sample) were incubated at 37° C. (24 hours) with chromatographically-purified bacterial collagenase. After 24 hours the reaction mixture was centrifuged at 7000 rpm, room temperature for 30 minutes. Following centrifugation, the supernatants containing the digested collagen were collected. Aliquots of the supernatants were analyzed for glycosylated collagen using a modification of the Isolab Glyco-PROBE™ GSP assay kit. The assay is designed to measure glucose bound to protein which was then converted by Amadori rearrangement to fructosamine. For purposes of the present invention, the sample total protein was increased to compensate for low levels of glycosylated collagen compared to glycosylated serum proteins.
# skin collagen [2] = experiment: Glycosylation of skin collagen in diabetic rats, anthrone method (Example IV, FIG. 6); type: in vivo, Sprague-Dawley rat; conditions: 5 mg daily oral gavage, 21 days; effect p<0.05
# Procedure: (§2) Sixteen adult male sprague-Dawley rats, each weighing approximately 350 grams, were divided into four groups 0f four animals per group.
# In addition, the entire skin was dissected from each rat. Samples containing 100mg of each skin were suspended in a Tris-HCl buffer containing 5mM CaCl2 and chromatographically-purified bacterial collagenase and incubated at 37° C. for 4 hours. Following incubation all samples were centrifugated at 35,000×G and the supernatants containing the skin collagen fragments were collected. The skin digest supernatants were analyzed for (1) carbohydrate-attached-to-collagen by the anthrone method, as described by Halhoul and Kleinberg ([…]) Anal. Biochem. 50: 337-343 and (2) total protein using the BioRad Assay, BioRad Chemical Division, Richmond, Calif.
# collagenase [3] = experiment: Collagenase activity in skin of diabetic rats (Example V, FIG. 8); type: in vivo, Sprague-Dawley rat; conditions: 5 mg daily oral gavage, 21 days; p<0.001 for normalization
# Procedure: as §1
# In particular, all dissection and extraction procedures were carried out at 4° C. unless otherwise indicated. For MMP analysis, the tissues were minced, weighed, extracted, and the extracts partially purified by ammonium sulfate precipitation using techniques described previously (Ramamurthy and Golub, J. Periodontal Res. 17, 455, (1983)). The extracts of the diseased tissue were then concentrated 5-fold and aliquots were incubated (a) with [^3 H-methyl] gelatin (denatured type I rat skin collagen ) at 37° C. for 4hours to measure gelatinase activity. The undigested gelatin was precipitated with trichloroacetic acid, and after centrifugation, aliquots of the degradation products in the supernatants were measured in a liquid scintillation spectrometer (in addition to this lysis assay, the different molecular forms of gelatinase were assessed by zymography); (b) with [^3 H-methyl] collagen for 18 hours at 27° C. and the collagen degradation fragments in the supernatants were analyzed with a liquid scintillation spectrometer to measure collagenase activity. In addition, the radiolabeled collagen components (α chains) and degradation fragments (α^A) were assessed by a combination of SDS-polyacrylamide gel electrophoresis and fluorography as described previously (Golub et al. J. Periodontal Res. 20, 12 (1985).
# serum protein = experiment: Glycosylated serum proteins in diabetic rats (Example IV, FIG. 5); type: in vivo, Sprague-Dawley rat; conditions: 5 mg daily oral gavage, 21 days; effect p<0.05
# Source text: (Control vs. Diabetic p<0.01, Diabetic vs. Diabetic treated with Doxycycline p<0.05, Diabetic vs. Diabetic treated with CMT-1 (4-dedimethyiaminotetracycline) p<0.05).
# as §2
# serum proteins [4] = experiment: Serum fructosamine (glycosylated serum protein), 14 weeks doxycycline (Example II, Table III); type: in vivo; conditions: 2 mg/rat/day oral
# Procedure: Three groups of rats were established: a non-diabetic control group, an untreated streptozotocin-diabetic group and a streptozotocin-diabetic group treated orally with 2 mg doxycycline/rat/day over the 14-week time period. At the end of the 14 weeks, blood samples were collected from each rat arid the serum was measured for glycosylated protein using an assay which is based on the ability of glucose to non-enzymatically bind to proteins by a ketoamine crosslink to form fructosamine. During the assay, the glucose bound to the protein through a ketoamine chemical bond reduces a tetrazolium dye under alkaline conditions producing a color change which is measured spectrophotometrically. Armbruster, Clin. Chem., 33: 2153-2163 (1987). A fructosamine assay kit is available from Isolab Inc., Akron, Ohio 44321.
# In particular, the serum samples were centrifuged to remove lipids. The clarified serum samples were treated with a reagent to remove ascorbic acid and other interfering substances. The treated Serum samples were then incubated for a fixed period of time, with the fructosamine-bicarbonate reagent (tetrazolium salt), and absorbance was measured at a wavelength of 500 nm in a spectrophotometer. The data was analyzed statistically.
# gelatinase = experiment: Gelatinase activity in skin of diabetic rats (Example V, FIG. 9); type: in vivo, Sprague-Dawley rat; conditions: 5 mg daily oral gavage, 21 days; p<0.001 for normalization
# Procedure: as §1
# In particular, all dissection and extraction procedures were carried out at 4° C. unless otherwise indicated. […] The extracts of the diseased tissue were then concentrated 5-fold and aliquots were incubated (a) with [^3 H-methyl] gelatin (denatured type I rat skin collagen ) at 37° C. for 4hours to measure gelatinase activity. The undigested gelatin was precipitated with trichloroacetic acid, and after centrifugation, aliquots of the degradation products in the supernatants were measured in a liquid scintillation spectrometer (in addition to this lysis assay, the different molecular forms of gelatinase were assessed by zymography); (b) with [^3 H-methyl] collagen for 18 hours at 27° C. and the collagen degradation fragments in the supernatants were analyzed with a liquid scintillation spectrometer to measure collagenase activity.
# [5] = tested on: streptozotocin-diabetic rats; experiment: Other signs of diabetes (hyperglycemia, glucosuria, polyuria) in diabetic rats (Example III); type: in vivo, rat
# Procedure: (§3) Streptozotocin-diabetic rats were treated by the daily oral administration of 20 mg minocycline/rat/day over a 4-week period. At the end of the protocol, 24-hour urines were collected to measure protein excretion.
# [6] = White, Lancet 1989; cited from earlier work
# [7] = tested on: streptozotocin-diabetic rats; experiment: Proteinuria: urine protein excretion in diabetic rats (Example III, FIG. 4); type: in vivo, rat; conditions: 4 weeks
# Procedure: Example III was carried out to determine the effect of tetracycline therapy on proteinuria, a parameter of renal damage, in diabetic rats.
# as §3
# collagen = conditions: diabetes in rats; Brownlee et al. 1986; cited from earlier work
# collagenase [8] = conditions: in vitro (Golub, et al., 1991) and in vivo; cited from earlier work
# serum proteins [9] = experiment: Glycosylated serum protein (GSP) in diabetic rats (Example V, FIG. 7); conditions: 5 mg daily oral gavage, 21 days; vs untreated diabetics, p<0.005
# Procedure: Fifty-two adult male Sprague-Dawley rats were divided into eight groups, each consisting of 5-7 animals. Diabetes was induced by I.V. administration of streptozotocin in all rats, except the non-diabetic control group (7 rats). […] All animals were weighed weekly. Following general anesthesia by halothane inhalation, blood samples were collected by cardiac puncture. Blood samples were analyzed for serum glucose and glycosylated serum protein (GSP) levels. As previously mentioned, glycosylated serum protein levels were measured using the Isolab Glyco-PROBE™ GSP (glycosylated serum protein) assay kit.
compound,measurement,setting,value
"C[C@H]1c2cccc(O)c2C(O)=C2C(=O)[C@]3(O)C(O)=C(C(N)=O)C(=O)[C@@H](N(C)C)[C@@H]3[C@@H](O)[C@@H]21 [Doxycycline, reference compound]",severity of hyperglycemia,diabetic rats,does not reduce the severity of hyperglycemia in diabetic rats
same,mM Fructosamine/mg protein (Mean ± SE),skin collagen [1],0.244 ± 0.050 mM Fructosamine/mg protein
same,Reduction of glycosylation in treated diabetics (%),skin collagen [1],35.3%
same,glycosylation of skin collagen,skin collagen [2],returned both of these parameters of abnormal glycosylation to essentially normal levels
same,collagenase activity in the skin,collagenase [3],normalized
same,fructosamine attached to serum protein (glycosylated serum protein),serum protein,returned both of these parameters of abnormal glycosylation to essentially normal levels
same,Serum Fructosamine Concentration,"serum proteins [4]; mean ± standard error, non-diabetic 1.33, untreated diabetics 3.82",3.23 ± 0.20
same,fructosamine levels in the serum proteins,"serum proteins [4]; vs untreated diabetics, p<0.05",significantly (p<0.05) reduced
same,gelatinase activity in the skin,gelatinase,normalized
CN(C)c1ccc(O)c2c1C[C@H]1C[C@H]3[C@H](N(C)C)C(O)=C(C(N)=O)C(=O)[C@@]3(O)C(O)=C1C2=O [Minocycline],"other signs of diabetes including hyperglycemia, glucosuria and polyuria",[5],Neither treatment with minocycline nor CMT-1 reduced the other signs of diabetes
same,effectiveness in dystrophic epidermolysis bullosa,[6],effective in treating dystrophic epidermolysis bullosa
same,urine protein excretion,"[7]; 20 mg minocycline/rat/day oral, normal 48, untreated diabetics 280",52 mg/24 hr
same,development of proteinuria,[7]; 20 mg/rat/day oral,completely prevented the development of proteinuria
N=C(N)NN [aminoguanidine],inhibition of nonenzymatic glucose-derived collagen crosslinking,collagen,effective inhibitor
tetracycline pyrazole [CMT-5],anticollagenase properties,collagenase [8],lost its anticollagenase properties
same,GSP levels,serum proteins [9],substantially lower
same,mM Fructosamine/mg protein (Mean ± SE),skin collagen [1],0.121 ± 0.050 mM Fructosamine/mg protein
same,Reduction of glycosylation in treated diabetics (%),skin collagen [1],69.9%
same,collagenase activity in the skin,collagenase [3],normalized by all treatment groups (p<0.001) with the exception of CMT 5
same,gelatinase activity in the skin,gelatinase,normalized by all treatment groups (p<0.001) with the exception of CMT 5
